Source: PMC9505973, “Sustainable Production of Biosurfactant from Agro-Industrial Oil Wastes by Bacillus subtilis and Its Potential Application as Antioxidant and ACE Inhibitor” (International Journal of Molecular Sciences, 2022)

Columns and labels:
[1] = DPPH free radical scavenging (TEAC)
Description: The surfactin antioxidant activity was measured using ABTS, DPPH and FRAP assays. Each measurement was performed in triplicate. The ABTS assay was conducted according to Re et al.. In the first instance, radical cation (ABTS^•+) solution was prepared by mixing 7 mM ABTS stock solution (Sigma-Aldrich) with 2.45 mM potassium persulfate solution (Sigma-Aldrich). The mixture was incubated in the dark at room temperature for 12–16 h. Then, the reagent absorbance was adjusted to 0.7 (±0.02) at 734 nm, using distilled water as a blank. The antioxidant activity of the biosurfactant was determined by mixing 10 μL of surfactin (1 mg/mL) with 990 μL of ABTS^•+ solution. The absorbance was measured after 5 min incubation in the dark, using the Spark multimode microplate leader (Tecan Group Ltd., Männedorf, Switzerland), at 734 nm. […] The activity of surfactin was expressed as the Trolox equivalent antioxidant capacity (TEAC [µM/g]).
In addition, the antioxidant activity of surfactin, expressed as the ability to scavenge DPPH free radicals, was investigated according to Xu et al.. […] The sample was centrifuged (12000 rpm) and the absorbance was measured using the Spark multimode microplate leader (Tecan Group Ltd., Männedorf, Switzerland) at 517 nm. The antioxidant activity of surfactin was expressed as Trolox equivalent (TEAC [µM/g]). […]

[2] = system: angiotensin-converting enzyme (ACE); experiment: ACE-inhibitory activity assay; type: biochemical
Description: The ACE-inhibitory activity assay was performed according to Udenigwe and Aluko [56] and quantified by a regression analysis of ACE-inhibitory activity (%) versus surfactin concentration. The IC50 value, i.e., the surfactin concentration (µg/mL) that causes 50% inhibition of ACE activity, was determined. The assay was carried out in triplicate.

[3] = Ferric reducing antioxidant power (FRAP, TEAC)
Description: (§1) The surfactin antioxidant activity was measured using ABTS, DPPH and FRAP assays. Each measurement was performed in triplicate. The ABTS assay was conducted according to Re et al.. In the first instance, radical cation (ABTS^•+) solution was prepared by mixing 7 mM ABTS stock solution (Sigma-Aldrich) with 2.45 mM potassium persulfate solution (Sigma-Aldrich). The mixture was incubated in the dark at room temperature for 12–16 h. Then, the reagent absorbance was adjusted to 0.7 (±0.02) at 734 nm, using distilled water as a blank. The antioxidant activity of the biosurfactant was determined by mixing 10 μL of surfactin (1 mg/mL) with 990 μL of ABTS^•+ solution. The absorbance was measured after 5 min incubation in the dark, using the Spark multimode microplate leader (Tecan Group Ltd., Männedorf, Switzerland), at 734 nm. The standard curve was prepared for Trolox ethanol solution (Sigma-Aldrich, St. Louis, MO, USA) in the range of 0–2000 μM. The activity of surfactin was expressed as the Trolox equivalent antioxidant capacity (TEAC [µM/g]).
Finally, the FRAP assay was conducted according to Benzie et al.. The reaction, performed at pH = 3.6, involved the reduction of Fe^3+ to Fe^2+ in the presence of 2,4,6-trypyridyl-s-triazine, followed by the formation of a colored complex. […]

[4] = ABTS radical cation assay (TEAC)
Description: as §1

[5] = system: ACE in serum; settings: HFFD rats; cited from earlier work
Description: Biosurfactants’ inhibitory activity was analyzed in vitro as well as in vivo, using an animal model, in the work of Zouari et al.. […] Moreover, the administration of B. subtilis SPB1 lipopeptides or atorvastatin in vivo, to hypercaloric high-fat–high-fructose diet (HFFD) rats, decr ...

IC50, ACE-inhibitory activity ([2]; regression of ACE-inhibitory activity (%) versus surfactin concentration, triplicate)	Molecule	TEAC, DPPH ([1]; 10 μL surfactin (1 mg/mL) + 190 μL 0.1 mM DPPH in ethanol, 30 min in the dark, 517 nm, Trolox standard 0–1000 μM, triplicate)	antioxidant activity (DPPH), in words ([1]; surfactin 1 mg/mL)	ACE inhibition, in words [2]	TEAC, FRAP ([3]; 50 μL surfactin (1 mg/mL) + 150 μL working solution, pH 3.6, 10 min, room temperature, 593 nm, Trolox standard, triplicate)	antioxidant activity (FRAP), in words ([3]; surfactin 1 mg/mL)	TEAC, ABTS ([4]; 10 μL surfactin (1 mg/mL) + 990 μL ABTS•+, 5 min in the dark, 734 nm, Trolox standard 0–2000 μM, triplicate)	antioxidant activity (ABTS), in words ([4]; surfactin 1 mg/mL)	reduction in ACE activity [5]
620 ± 40 µg/mL	surfactin	11.67 ± 0.8 µM/g	trace antioxidant activity	strong inhibitory effect against ACE activity	0.76 ± 0.096 µM/g	trace antioxidant activity	3.77 ± 0.22 µM/g	trace antioxidant activity	–
–	CC(C)c1c(C(=O)Nc2ccccc2)c(-c2ccccc2)c(-c2ccc(F)cc2)n1CC[C@@H](O)C[C@@H](O)CC(=O)O [atorvastatin]	–	–	–	–	–	–	–	24%
